Measured values: PubChem BioAssay (NCI)
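Assay format: 96-well plates, 48-hour exposure. GI50: concentration for 50% inhibition of growth. The concentration for full growth arrest is given as TGI.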

Experiments:
Experiment in all cases: NCI tumour cell line growth inhibition, 48 h
BT-549 breast = tested on: BT-549 breast
HOP-62 NSCLC = tested on: HOP-62 NSCLC
M14 melanoma = tested on: M14 melanoma
MOLT-4 leukemia = tested on: MOLT-4 leukemia
NCI-H226 lung = tested on: NCI-H226 lung
NCI-H460 lung = tested on: NCI-H460 lung
OVCAR-8 ovarian = tested on: OVCAR-8 ovarian
SF-295 CNS = tested on: SF-295 CNS
T-47D breast = tested on: T-47D breast
UO-31 renal = tested on: UO-31 renal

For `COC(=O)CNc1nc(N(C)O)nc(N(C)O)n1`, the GI50 (BT-549 breast) was 13.8 µM, the TGI (BT-549 breast) was over 100 µM and the GI50 (HOP-62 NSCLC) was 2.12 µM. For the same molecule, the TGI (HOP-62 NSCLC) was over 100 µM, the GI50 (M14 melanoma) was 3.38 µM and the TGI (M14 melanoma) was 32.6 µM. It also gave a GI50 (MOLT-4 leukemia) of 1.69 µM, a TGI (MOLT-4 leukemia) of over 100 µM and a GI50 (NCI-H226 lung) of 8.31 µM. It also gave a TGI (NCI-H226 lung) of over 100 µM, a GI50 (NCI-H460 lung) of 0.557 µM and a TGI (NCI-H460 lung) of over 100 µM. It also gave a GI50 (OVCAR-8 ovarian) of 3.31 µM, a TGI (OVCAR-8 ovarian) of over 100 µM and a GI50 (SF-295 CNS) of 2.92 µM. For the same molecule, the TGI (SF-295 CNS) was over 100 µM, the GI50 (T-47D breast) was 17.7 µM and the TGI (T-47D breast) was over 100 µM. The GI50 (UO-31 renal) was 3.02 µM and the TGI (UO-31 renal) was 50.5 µM.

`COC(=O)c1oc2c(C(=O)/C=C/c3ccc(OC)cc3)c(OCCN3CCOCC3)ccc2c1C` showed a GI50 (BT-549 breast) of 2.42 µM, a TGI (BT-549 breast) of 7.91 µM and a GI50 (HOP-62 NSCLC) of 2.44 µM. The TGI (HOP-62 NSCLC) was 6.88 µM, the GI50 (M14 melanoma) was 3.11 µM and the TGI (M14 melanoma) was 12.1 µM. For the same molecule, the GI50 (MOLT-4 leukemia) was 1.24 µM, the TGI (MOLT-4 leukemia) was 3.72 µM and the GI50 (NCI-H226 lung) was 1.59 µM. It also gave a TGI (NCI-H226 lung) of 3.51 µM, a GI50 (NCI-H460 lung) of 1.91 µM and a TGI (NCI-H460 lung) of 4.75 µM. For the same molecule, the GI50 (OVCAR-8 ovarian) was 1.8 µM, the TGI (OVCAR-8 ovarian) was 4.7 µM and the GI50 (SF-295 CNS) was 1.85 µM. The TGI (SF-295 CNS) was 5.2 µM, the GI50 (T-47D breast) was 1.51 µM and the TGI (T-47D breast) was 6.83 µM. It also gave a GI50 (UO-31 renal) of 1.89 µM and a TGI (UO-31 renal) of 5.25 µM.

In the case of `CC/C=C\C[C@H](O)C/C=C1/C(=O)C=C[C@@H]1C/C=C\CCCCO`, the GI50 (BT-549 breast) is reported as 2.46 µM, the TGI (BT-549 breast) is reported as 6.68 µM and the GI50 (HOP-62 NSCLC) is reported as 2.12 µM. For the same molecule, the TGI (HOP-62 NSCLC) was 5 µM, the GI50 (M14 melanoma) was 2.06 µM and the TGI (M14 melanoma) was 6.17 µM. For the same molecule, the GI50 (MOLT-4 leukemia) was 2.65 µM, the TGI (MOLT-4 leukemia) was 11.1 µM and the GI50 (NCI-H226 lung) was 2.24 µM. For the same molecule, the TGI (NCI-H226 lung) was 4.76 µM, the GI50 (NCI-H460 lung) was 2.93 µM and the TGI (NCI-H460 lung) was 9.24 µM. The GI50 (OVCAR-8 ovarian) was 3.24 µM, the TGI (OVCAR-8 ovarian) was 11.9 µM and the GI50 (SF-295 CNS) was 2.39 µM. It also gave a TGI (SF-295 CNS) of 6.34 µM, a GI50 (T-47D breast) of 2.63 µM and a TGI (T-47D breast) of 11.1 µM. The GI50 (UO-31 renal) was 1.63 µM and the TGI (UO-31 renal) was 3.23 µM.

In the case of `Cc1sc2c(c1C)C(c1ccc(Cl)cc1)=N[C@@H](CC(=O)NCCCN1CCN(C)CC1)c1nnc(C)n1-2`, the GI50 (BT-549 breast) is reported as 3.51 µM, the TGI (BT-549 breast) is reported as over 100 µM and the GI50 (HOP-62 NSCLC) is reported as 0.352 µM. For the same molecule, the TGI (HOP-62 NSCLC) was over 100 µM, the GI50 (M14 melanoma) was 1.24 µM and the TGI (M14 melanoma) was over 100 µM. It also gave a GI50 (MOLT-4 leukemia) of 22.2 µM, a TGI (MOLT-4 leukemia) of over 100 µM and a TGI (NCI-H226 lung) of over 100 µM. The GI50 (NCI-H460 lung) was over 63.2 µM, the TGI (NCI-H460 lung) was over 100 µM and the GI50 (OVCAR-8 ovarian) was 4.96 µM. The TGI (OVCAR-8 ovarian) was over 100 µM, the GI50 (SF-295 CNS) was 8.12 µM and the TGI (SF-295 CNS) was over 100 µM. The GI50 (T-47D breast) was 0.287 µM, the TGI (T-47D breast) was over 100 µM and the GI50 (UO-31 renal) was 3.83 µM. It also gave a TGI (UO-31 renal) of over 100 µM.

`[Cu+2].[NH-]C(CC(=O)O)C(=O)O.[NH-]C(CC(=O)O)C(=O)O` (centres undefined) was tested, and the GI50 (BT-549 breast) was over 100 µM, the TGI (BT-549 breast) was over 100 µM and the GI50 (HOP-62 NSCLC) was over 100 µM. It also gave a TGI (HOP-62 NSCLC) of over 100 µM, a GI50 (M14 melanoma) of over 100 µM and a TGI (M14 melanoma) of over 100 µM. For the same molecule, the GI50 (MOLT-4 leukemia) was over 100 µM, the TGI (MOLT-4 leukemia) was over 100 µM and the GI50 (NCI-H226 lung) was over 100 µM. It also gave a TGI (NCI-H226 lung) of over 100 µM, a GI50 (NCI-H460 lung) of over 100 µM and a TGI (NCI-H460 lung) of over 100 µM. The GI50 (OVCAR-8 ovarian) was over 100 µM, the TGI (OVCAR-8 ovarian) was over 100 µM and the GI50 (SF-295 CNS) was over 100 µM. For the same molecule, the TGI (SF-295 CNS) was over 100 µM, the GI50 (T-47D breast) was over 100 µM and the TGI (T-47D breast) was over 100 µM. The GI50 (UO-31 renal) was over 100 µM and the TGI (UO-31 renal) was over 100 µM.

With `NC(N)=Nc1ccc(/C=C2\C=Cc3ccccc32)cc1` the GI50 (BT-549 breast) was 3.98 µM, the TGI (BT-549 breast) was 26.5 µM and the GI50 (HOP-62 NSCLC) was 2.4 µM. For the same molecule, the TGI (HOP-62 NSCLC) was 6.23 µM, the GI50 (M14 melanoma) was 2.05 µM and the TGI (M14 melanoma) was 5.44 µM. The GI50 (MOLT-4 leukemia) was 2.41 µM, the TGI (MOLT-4 leukemia) was 5.22 µM and the GI50 (NCI-H226 lung) was 5.73 µM. The TGI (NCI-H226 lung) was 31.1 µM, the GI50 (NCI-H460 lung) was 2.01 µM and the TGI (NCI-H460 lung) was 4.51 µM. The GI50 (OVCAR-8 ovarian) was 2.22 µM, the TGI (OVCAR-8 ovarian) was 5.67 µM and the GI50 (SF-295 CNS) was 7.28 µM. For the same molecule, the TGI (SF-295 CNS) was 24.6 µM, the GI50 (T-47D breast) was 2.48 µM and the TGI (T-47D breast) was 7.39 µM. It also gave a GI50 (UO-31 renal) of 2.15 µM and a TGI (UO-31 renal) of 6.58 µM.

With `CC(=O)N[C@@H](Cc1ccc(OP(=O)(O)O)cc1)C(=O)N[C@H]1CCC(=O)N2CCC[C@@H](C(=O)NCc3ccccc3)N2C1=O` the GI50 (BT-549 breast) was over 25 µM, the TGI (BT-549 breast) was over 25 µM and the GI50 (HOP-62 NSCLC) was over 25 µM. It also gave a TGI (HOP-62 NSCLC) of over 25 µM, a GI50 (M14 melanoma) of over 25 µM and a TGI (M14 melanoma) of over 25 µM. For the same molecule, the GI50 (MOLT-4 leukemia) was over 25 µM, the TGI (MOLT-4 leukemia) was over 25 µM and the GI50 (NCI-H226 lung) was over 25 µM. It also gave a TGI (NCI-H226 lung) of over 25 µM, a GI50 (NCI-H460 lung) of over 25 µM and a TGI (NCI-H460 lung) of over 25 µM. The GI50 (OVCAR-8 ovarian) was over 25 µM, the TGI (OVCAR-8 ovarian) was over 25 µM and the GI50 (SF-295 CNS) was over 25 µM. The TGI (SF-295 CNS) was over 25 µM, the GI50 (T-47D breast) was over 25 µM and the TGI (T-47D breast) was over 25 µM. The GI50 (UO-31 renal) was over 25 µM and the TGI (UO-31 renal) was over 25 µM.

In the case of `Cc1ccsc1-c1ccc2c(c1)COC2(CCCN(C)C)c1ccc(F)cc1` (centres undefined), the GI50 (BT-549 breast) is reported as 4.97 µM, the TGI (BT-549 breast) is reported as 18.6 µM and the GI50 (HOP-62 NSCLC) is reported as 3.16 µM. It also gave a TGI (HOP-62 NSCLC) of 12.8 µM, a GI50 (M14 melanoma) of 1.73 µM and a TGI (M14 melanoma) of 3.46 µM. It also gave a GI50 (MOLT-4 leukemia) of 2.7 µM, a TGI (MOLT-4 leukemia) of 8.43 µM and a GI50 (NCI-H226 lung) of 8.59 µM. For the same molecule, the TGI (NCI-H226 lung) was 25.3 µM, the GI50 (NCI-H460 lung) was 1.77 µM and the TGI (NCI-H460 lung) was 3.49 µM. It also gave a GI50 (OVCAR-8 ovarian) of 3.28 µM, a TGI (OVCAR-8 ovarian) of 13.2 µM and a GI50 (SF-295 CNS) of 1.77 µM. It also gave a TGI (SF-295 CNS) of 3.58 µM, a GI50 (T-47D breast) of 2.15 µM and a TGI (T-47D breast) of 6.92 µM. For the same molecule, the GI50 (UO-31 renal) was 1.7 µM and the TGI (UO-31 renal) was 6.26 µM.

Work on `CC(C)C(=O)c1c(C(F)(F)F)n([O-])c2ccccc2[n+]1=O` yielded a GI50 (BT-549 breast) of 1.06 µM, a TGI (BT-549 breast) of 3.08 µM and a GI50 (HOP-62 NSCLC) of 1.78 µM. The TGI (HOP-62 NSCLC) was 3.49 µM, the GI50 (M14 melanoma) was 1.74 µM and the TGI (M14 melanoma) was 3.76 µM. It also gave a GI50 (MOLT-4 leukemia) of 1.27 µM, a TGI (MOLT-4 leukemia) of 9.65 µM and a GI50 (NCI-H226 lung) of 1.86 µM. It also gave a TGI (NCI-H226 lung) of 5.27 µM, a GI50 (NCI-H460 lung) of 1.72 µM and a TGI (NCI-H460 lung) of 5.56 µM. For the same molecule, the GI50 (OVCAR-8 ovarian) was 2.14 µM, the TGI (OVCAR-8 ovarian) was over 20.5 µM and the GI50 (SF-295 CNS) was 0.553 µM. It also gave a TGI (SF-295 CNS) of 2 µM, a GI50 (T-47D breast) of 0.827 µM and a TGI (T-47D breast) of 3.49 µM. The GI50 (UO-31 renal) was 1.18 µM and the TGI (UO-31 renal) was 3.11 µM.

In the case of `Cc1ccccc1C(C(=O)NC1CCCCC1)N(C(=O)CNc1ncccc1F)c1cccc(F)c1` (centres undefined), the GI50 (BT-549 breast) is reported as over 58.4 µM, the TGI (BT-549 breast) is reported as over 100 µM and the GI50 (HOP-62 NSCLC) is reported as 14.8 µM. The TGI (HOP-62 NSCLC) was over 64.3 µM, the GI50 (M14 melanoma) was over 100 µM and the TGI (M14 melanoma) was over 100 µM. It also gave a GI50 (MOLT-4 leukemia) of over 100 µM, a TGI (MOLT-4 leukemia) of over 100 µM and a GI50 (NCI-H226 lung) of 38.3 µM. It also gave a TGI (NCI-H226 lung) of over 100 µM, a GI50 (NCI-H460 lung) of over 100 µM and a TGI (NCI-H460 lung) of over 100 µM. The GI50 (OVCAR-8 ovarian) was 19 µM, the TGI (OVCAR-8 ovarian) was over 100 µM and the GI50 (SF-295 CNS) was 20.6 µM. The TGI (SF-295 CNS) was over 76.8 µM, the GI50 (T-47D breast) was 60.8 µM and the TGI (T-47D breast) was over 100 µM. The GI50 (UO-31 renal) was over 100 µM and the TGI (UO-31 renal) was over 100 µM.
